{
  "source": "patent US20200360306A1",
  "about": "“USE OF CO-CRYSTALS OF TRAMADOL AND CELECOXIB FOR TREATING PAIN WHILE REDUCING THE ABUSE LIABILITY OF TRAMADOL” (ESTEVE PHARMACEUTICALS, S.A., priority 2019, published 2020)",
  "experiment": "Single dose, randomized, open-label, 4-period crossover pharmacokinetic study; plasma tramadol and O-desmethyltramadol (M1) by HPLC-MS/MS; AQ=Cmax/Tmax",
  "conditions": "healthy subjects; for AQ for tramadol, comparison between treatments (statistical significance): 4-way cross-over study; for O-desmethyltramadol AQ / O-desmethyltramadol Cmax / O-desmethyltramadol Tmax / Tramadol AQ / Tramadol Cmax: 2 × 100 mg co-crystal E-58425 tablets (Treatment 1), oral",
  "procedure": "The study was a single center, randomized, single dose, open-label, 4-period, 4-sequence, crossover design in healthy male and female subjects.\nThe products were administered to 36 subjects. The wash-out between the periods for each subject was of 7 calendar days.\nSeparate blood samples were obtained for analysis of tramadol/M1 metabolite and for analysis of celecoxib (data not shown).\nAs soon as possible following blood collection, samples were centrifuged at a temperature of 4° C. nominal and at approximately 1500 g for 10 minutes. The plasma obtained was separated into duplicate polypropylene culture tubes. […] The samples were frozen in an upright position and retained in the clinic's freezers at a temperature of −20° C. nominal until sent on dry ice to the bioanalytical facility for assay.\nThe experimental human plasma samples were assayed for tramadol and M1 metabolite (O-desmethyltramadol) and also for celecoxib (data not shown) using two different validated bioanalytical methods by HPLC with MS/MS detection.\nSample pre-treatment involved the liquid-liquid extraction of tramadol and O-desmethyltramadol from 0.100 mL of human plasma; tramadol-D6 and O-desmethyltramadol-D6 were used as the internal standards (IS1 and IS2 respectively). The compounds were identified and quantified using Hilic HPLC with MS/MS detection over a theoretical concentration range of 2.00 ng/mL to 800.00 ng/mL for tramadol and 0.500 ng/mL to 200.00 ng/mL for O-desmethyltramadol. The concentrations were calculated using peak area ratios and the linearity of the calibration curve was determined using a weighted (1/x^2) linear (y=mx+b) least squares regression analysis for tramadol and for O-desmethyltramadol.\nPharmacokinetic parameters were estimated from the individual plasma concentration—time profile for each subject. The main absorption and disposition parameters were obtained using a non-compartmental approach with a log-linear terminal phase assumption. Maximum observed plasma concentration (Cmax) and the time of maximum observed plasma concentration (Tmax) were obtained directly from the experimental data. The trapezoidal rule was used to estimate the area under the curve (AUC; data not shown) and the terminal phase was estimated by maximizing the coefficient of determination estimated from the log-linear regression model (T1/2; data not shown). The abuse quotient was obtained using the following expression AQ=Cmax/Tmax.",
  "key": {"[1]": {"conditions": "Table 3 summary, oral co-crystal E-58425 tablets"}},
  "note": "Values joined by “and” are separate entries in the source; they are usually repeats but may differ in a detail not shown here. Equal values may be shown once.",
  "data": [
    {"smiles": "COc1cccc([C@]2(O)CCCC[C@@H]2CN(C)C)c1.Cc1ccc(-c2cc(C(F)(F)F)nn2-c2ccc(S(N)(=O)=O)cc2)cc1.Cl", "note": "(racemic) [co-crystal E-58425, co-crystal of (rac)-tramadol.HCl and celecoxib]", "values": [
      {"measurement": "AQ for tramadol, comparison between treatments (statistical significance)", "value": "better (lower) AQ ratio"},
      {"measurement": "AQ for tramadol, comparison between treatments (statistical significance)", "setting": "listed as Co-crystal E-58425", "value": "lower than those obtained for Ultram® and for Ultram® and Celebrex® taken concomitantly"},
      {"measurement": "O-desmethyltramadol AQ", "setting": "Mean, n=33", "value": "13.5 ng/(mL · h)"},
      {"measurement": "O-desmethyltramadol Cmax", "setting": "Mean, n=33", "value": 54.5, "unit": "ng/mL"},
      {"measurement": "O-desmethyltramadol Tmax", "setting": "Mean, n=33", "value": 4.4, "unit": "h"},
      {"measurement": "Tramadol AQ", "setting": "Mean, n=33", "value": "70.5 ng/(mL · h)"},
      {"measurement": "Tramadol Cmax", "setting": "Mean, n=33", "value": 214.3, "unit": "ng/mL"},
      {"measurement": "O-desmethyltramadol AQ", "setting": "Median, n=33", "value": "13.3 ng/(mL · h)"},
      {"measurement": "O-desmethyltramadol Cmax", "setting": "Median, n=33", "value": 55.4, "unit": "ng/mL"},
      {"measurement": "Tramadol AQ", "setting": "Median, n=33", "value": "70.7 ng/(mL · h)"},
      {"measurement": "Tramadol Cmax", "setting": "Median, n=33", "value": 207.5, "unit": "ng/mL"},
      {"measurement": "AQ M1 Mean", "setting": "[1]", "value": 13.5},
      {"measurement": "AQ Tramadol Mean", "setting": "[1]", "value": 70.5},
      {"measurement": "O-desmethyltramadol Tmax", "setting": "individual subject values, fasting, plasma", "value": "3.00 h and 4.00 h"}
    ]}
  ]
}
